Test results from US20250230193A1, “CYCLIC COMPOUND HAVING SELECTIVE KRAS INHIBITORY EFFECT ON HRAS AND NRAS” (CHUGAI SEIYAKU KABUSHIKI KAISHA, priority 2022, published 2025).
Where a SMILES comes first, the peptide text is derived from it. Bridges are numbered along the chain shown (N, C = ends). [ ]: non-standard residue; d: D form. The star is where a group is joined. hPhe(3-Cl-4-CF3) = N[C@@H](CCc1ccc(C(F)(F)F)c(Cl)c1)C(=O)O; NPrPhe(4-CF3) = CCCN[C@@H](Cc1ccc(C(F)(F)F)cc1)C(=O)O; NMeGly(cPent) = CN[C@H](C(=O)O)C1CCCC1; NMeD = CN[C@@H](CC(=O)O)C(=O)O; NMeL = CN[C@@H](CC(C)C)C(=O)O; Morpholide = C1CN(*)CCO1; Ac5c = NC1(C(=O)O)CCCC1; NEtG = CCNCC(=O)O; Sar = CNCC(=O)O

Key:
[1] = target: GDP-bound HRAS wild-type protein (Homo sapiens, UniProt P01112); assay: Binding to HRAS by surface plasmon resonance (SPR), Single Cycle Kinetics
GDP-bound HRAS wild-type protein, sequence (P01112 whole entry): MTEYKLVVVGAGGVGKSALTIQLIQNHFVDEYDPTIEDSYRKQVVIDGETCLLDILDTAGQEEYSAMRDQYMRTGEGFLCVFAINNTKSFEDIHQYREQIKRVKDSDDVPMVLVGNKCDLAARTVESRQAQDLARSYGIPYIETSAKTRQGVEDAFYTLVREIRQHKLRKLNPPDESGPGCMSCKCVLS

[2] = target: GDP-bound NRAS wild-type protein (Homo sapiens, UniProt P01111); assay: Binding to NRAS by surface plasmon resonance (SPR), Single Cycle Kinetics
GDP-bound NRAS wild-type protein, sequence (P01111 whole entry): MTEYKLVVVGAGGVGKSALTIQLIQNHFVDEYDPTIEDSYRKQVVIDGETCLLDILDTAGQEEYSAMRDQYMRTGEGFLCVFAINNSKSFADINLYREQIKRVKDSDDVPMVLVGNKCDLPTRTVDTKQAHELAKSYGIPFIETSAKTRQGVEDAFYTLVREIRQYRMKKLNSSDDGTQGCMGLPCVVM

[3] = GDP-bound HRAS wild-type vs GDP-bound KRAS wild-type, SPR
[4] = GDP-bound NRAS wild-type vs GDP-bound KRAS wild-type, SPR
[5] = KD ratio HRAS/KRAS, class symbols
[6] = KD ratio NRAS/KRAS, class symbols

CCO[C@@H]1C[C@H]2C(=O)NC3(CC(C)(C)C3)C(=O)N(C)[C@@H](C3CCCC3)C(=O)N(C)[C@H](C(=O)N(C)CC)CC(=O)N(C)[C@@H](CC)C(=O)N[C@@H]([C@@H](C)CC)C(=O)N(C)CC(=O)N(C)[C@H]3C/C=C\CCN(C3=O)[C@@H](Cc3ccc(C)cc3)C(=O)N(C)CC(=O)N[C@@H](CCc3ccc(C(F)(F)F)c(OC)c3)C(=O)N2C1 [PP1872]
HRAS/KRAS (ratio of KD value for HRAS to KD value for KRAS) [1, 3]: A (a compound having 10 or more and less than 20 is denoted as A) | NRAS/KRAS (ratio of KD value for NRAS to KD value for KRAS) [2, 4]: A (a compound having 10 or more and less than 20 is denoted as A)

CC[C@H](C)[C@@H]1NC(=O)[C@H](COC)N(C)C(=O)C[C@@H](C(=O)N(C)C)N(C)C(=O)[C@H](C2CCCC2)N(C)C(=O)C2(CC(C)(C)C2)NC(=O)[C@@H]2C[C@@H](OC3CCC3)CN2C(=O)[C@H](CCc2ccc(Cl)c(Cl)c2)NC(=O)CN(C)C(=O)[C@H](CC2CCC(F)(F)CC2)N2CC/C=C\C[C@@H](C2=O)N(C)C(=O)CN(C2CC2)C1=O [PP2624]
HRAS/KRAS (ratio of KD value with respect to GDP-bound HRAS wild-type protein to KD value with respect to KRAS) [1, 5]: A (a compound having 10 or more and less than 20 is denoted as A) | NRAS/KRAS (ratio of KD value with respect to GDP-bound NRAS wild-type protein to KD value with respect to KRAS) [2, 6]: A (a compound having 10 or more and less than 20 is denoted as A)

CCC[C@H]1C(=O)N[C@@H]([C@@H](C)CC)C(=O)N(C2CC2)CC(=O)N(C)[C@H]2C/C=C\CCN(C2=O)[C@@H](Cc2ccc(C(F)F)cc2)C(=O)N(C)CC(=O)N[C@@H](CCc2cc(F)c(C(F)(F)F)c(F)c2)C(=O)N2C[C@H](OC(C)C)C[C@H]2C(=O)NC2(CC(C)(C)C2)C(=O)N(C)[C@@H](C(CC)CC)C(=O)N(C)[C@H](C(=O)N(C)C)CC(=O)N1C [PP2529]
HRAS/KRAS (ratio of KD value with respect to GDP-bound HRAS wild-type protein to KD value with respect to KRAS) [1, 5]: A (a compound having 10 or more and less than 20 is denoted as A) | NRAS/KRAS (ratio of KD value with respect to GDP-bound NRAS wild-type protein to KD value with respect to KRAS) [2, 6]: AA (a compound having 20 or more is denoted as AA)

CCCN1C(=O)CN(C)C(=O)CN(CC)C(=O)[C@H]([C@@H](C)CC)NC(=O)[C@H](CC(C)C)N(C)C(=O)C[C@@H](C(=O)N2CCOCC2)N(C)C(=O)[C@H](C2CCCC2)N(C)C(=O)C2(CCCC2)NC(=O)[C@@H]2CCCN2C(=O)[C@H](CCc2ccc(C(F)(F)F)c(Cl)c2)NC(=O)CN(C)C(=O)[C@@H]1Cc1ccc(C(F)(F)F)cc1 [PP0145] ([NMeL]I[NEtG][Sar][NPrPhe(4-CF3)][Sar][hPhe(3-Cl-4-CF3)]P[Ac5c][NMeGly(cPent)][NMeD]-Morpholide; lactam N-11)
HRAS/KRAS (ratio of KD for GDP-bound HRAS wild-type to KD for KRAS) ([1]; KD ratio HRAS/KRAS, SPR): B (a compound having 3 or more and less than 10 is denoted as B) | NRAS/KRAS (ratio of KD for GDP-bound NRAS wild-type to KD for KRAS) ([2]; KD ratio NRAS/KRAS, SPR): B (a compound having 3 or more and less than 10 is denoted as B)

CCCC[C@H]1C(=O)N[C@@H]([C@@H](C)CC)C(=O)N(C)CC(=O)N(C)[C@H]2C/C=C\CCN(C2=O)[C@@H](Cc2ccc(C)cc2)C(=O)N(C)CC(=O)N[C@@H](CCc2cc(F)c(C(F)(F)F)c(F)c2)C(=O)N2C[C@H](OCC)C[C@H]2C(=O)NC2(CCC2)C(=O)N(C)[C@@H](C2CCCC2)C(=O)N(C)[C@H](C(=O)N(C)C)CC(=O)N1C [PP2798]
HRAS/KRAS (ratio of KD value with respect to GDP-bound HRAS wild-type protein to KD value with respect to KRAS) [1, 5]: A (a compound having 10 or more and less than 20 is denoted as A) | NRAS/KRAS (ratio of KD value with respect to GDP-bound NRAS wild-type protein to KD value with respect to KRAS) [2, 6]: A (a compound having 10 or more and less than 20 is denoted as A)

CCO[C@@H]1C[C@H]2C(=O)NC3(CC(C)(C)C3)C(=O)N(C)[C@@H](C3CCCC3)C(=O)N(C)[C@H](CC)CC(=O)N(C)[C@@H](CC3CC3)C(=O)N[C@@H]([C@@H](C)CC)C(=O)N(C)CC(=O)N(C)[C@H]3C/C=C\CCN(C3=O)[C@@H](Cc3ccc(C(F)(F)F)cc3)C(=O)N(C)CC(=O)N[C@@H](CCc3cc(F)c(C(F)(F)F)c(F)c3)C(=O)N2C1 [PP1629]
HRAS/KRAS (ratio of KD value for HRAS to KD value for KRAS) [1, 3]: B (a compound having 3 or more and less than 10 is denoted as B) | NRAS/KRAS (ratio of KD value for NRAS to KD value for KRAS) [2, 4]: B (a compound having 3 or more and less than 10 is denoted as B)

CCCOC[C@H]1C(=O)N[C@@H]([C@@H](C)CC)C(=O)N2CCC[C@H]2C(=O)N(C)[C@H]2C/C=C\CCN(C2=O)[C@@H](Cc2ccc(C)cc2)C(=O)N(C)CC(=O)N[C@@H](CCc2ccc(C(F)(F)F)c(OC)c2)C(=O)N2C[C@H](OCC)C[C@H]2C(=O)N(C)C2(CCC2)C(=O)N(C)[C@@H](C(CC)CC)C(=O)N(C)[C@H](C(=O)N(C)C)CC(=O)N1C [PP2331]
HRAS/KRAS (ratio of KD value with respect to HRAS to KD value with respect to KRAS) ([1]; SPR, GDP-bound HRAS wild-type vs GDP-bound KRAS wild-type): A (a compound having 10 or more and less than 20 is denoted as A) | NRAS/KRAS (ratio of KD value with respect to NRAS to KD value with respect to KRAS) ([2]; SPR, GDP-bound NRAS wild-type vs GDP-bound KRAS wild-type): AA (a compound having 20 or more is denoted as AA)

CCC[C@H]1C(=O)N[C@@H](C2CCOCC2)C(=O)N(C)CC(=O)N(C)[C@H]2C/C=C\CCN(C2=O)[C@@H](Cc2ccc(C(F)(F)F)cc2)C(=O)N(C)CC(=O)N[C@@H](CCc2ccc(C(F)(F)F)c(Cl)c2)C(=O)N2C[C@H](OCC)C[C@H]2C(=O)NC2(CC(C)(C)C2)C(=O)N(C)[C@@H](C2CCCC2)C(=O)N(C)[C@H](C(=O)N(C)C)CC(=O)N1C [PP3000]
HRAS/KRAS (ratio of KD value with respect to GDP-bound HRAS wild-type protein to KD value with respect to KRAS) ([1]; KD ratio HRAS/KRAS, SPR, GDP-bound wild-type proteins): A (a compound having 10 or more and less than 20 is denoted as A) | NRAS/KRAS (ratio of KD value with respect to GDP-bound NRAS wild-type protein to KD value with respect to KRAS) ([2]; KD ratio NRAS/KRAS, SPR, GDP-bound wild-type proteins): AA (a compound having 20 or more is denoted as AA)
